For orientation: Inhibition means the relative decrease from the control value, in per cent. Broadly, the IC50 is the concentration that inhibits the measured activity by half. The term inhibition denotes the drop in the measured response relative to a control, in per cent. As a reminder, the % inhibition is the drop in the measured response relative to a control, in per cent.

The assay addresses T1, His6-AspH315–758 (human aspartate/asparagine-β-hydroxylase, AspH) (Homo sapiens, UniProt Q12797).
T1 construct: N-Terminally His6-tagged human AspH315–758 (His6-AspH315–758) was produced in E. coli BL21 (DE3) cells; made in house; host or cells: E. coli BL21 (DE3), pET-28a(+) vector
T1 sequence (Q12797 315-758): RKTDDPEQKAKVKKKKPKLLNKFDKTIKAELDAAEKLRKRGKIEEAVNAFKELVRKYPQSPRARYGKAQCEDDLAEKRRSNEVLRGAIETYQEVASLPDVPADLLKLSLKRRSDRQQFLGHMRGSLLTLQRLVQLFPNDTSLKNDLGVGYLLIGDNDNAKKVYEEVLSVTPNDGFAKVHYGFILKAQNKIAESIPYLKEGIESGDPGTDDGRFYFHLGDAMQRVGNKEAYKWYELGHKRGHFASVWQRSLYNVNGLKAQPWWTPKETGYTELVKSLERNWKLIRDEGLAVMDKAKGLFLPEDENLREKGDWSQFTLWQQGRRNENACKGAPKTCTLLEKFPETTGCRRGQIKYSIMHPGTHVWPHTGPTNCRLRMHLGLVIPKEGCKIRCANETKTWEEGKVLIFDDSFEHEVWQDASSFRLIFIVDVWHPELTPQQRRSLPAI
Nature of the assay: SPE-MS AspH inhibition assay (LOPAC screen at fixed 20 μM and IC50 dose-response), hydroxylation of cyclic peptide hFX-CP101–119. The assay is classed as biochemical. Conditions: for Plate 5 (% inhibition) / Plate 5 (% conversion): plate 5 (Pfitzer), test compounds at fixed 20 μM; for Plate 5 (% conversion): mean conversion DMSO 32.88; for IC50: read-out: IC50; for inhibition at 20 µM: read-out: Plate 2 (% inhibition).

[1] abbreviates: LOPAC compound at 20uM, plate 2, conversion of substrate peptide.
Setting [2] is: LOPAC compound at 20uM, plate 2, normalised to DMSO and 2,4-PDCA controls.
Where [3] appears, read: LOPAC compound at fixed 20 uM, plate 1, normalised to DMSO and 2,4-PDCA controls.
[4] abbreviates: LOPAC compound at fixed 20 uM, substrate conversion, plate 1.
[5] abbreviates: 50 nM His6-AspH315–758, 1.0 μM hFX-CP101–119, 3 μM 2OG, 2 μM Fe(II), 50 mM HEPES pH 7.5, 20 °C, mean ± SD, n = 2 (2,4-PDCA n = 10).
The mark [6] stands for this setting: LOPAC Plate 4, compound at 20 uM, substrate conversion.
Setting [7] is: LOPAC compound at 20uM, plate 3, conversion of substrate peptide.

Structures are written as SMILES. Values joined by “and” are separate entries in the source; they are usually repeats but may differ in a detail not shown here. Identical values can stand only once. Counter-ions that a name gives are not always drawn. Like-named read-outs stand apart in the source and are kept apart here.

For the molecule `Cl.Cl.c1ccc(CCCN2CCN(CCOC(c3ccccc3)c3ccccc3)CC2)cc1` [GBR-12935 dihydrochloride], the “Plate 2 (% conversion)” value was 46.64%. The “Plate 2 (% inhibition)” value (20 µM) is recorded as -31.91%.
With `NC(N)=Nc1ccc2[nH]c3c(c2c1)C[C@@]1(O)[C@H]2Cc4ccc(O)c5c4[C@@]1(CCN2CC1CC1)[C@H]3O5.O=C(O)C(F)(F)F.O=C(O)C(F)(F)F` [GNTI, Guanidinyl-naltrindole di-trifluoroacetate, reference compound], the “Plate 2 (% conversion)” value stood at 1.92%. Besides, for the setting “20 µM”, the “Inhibition at 20 µM [%]” value is 100% and 101.7%. For the setting “pH 7.5”, the “IC50 [μM]” value is “inactive”.
For the molecule `Br.Br.CN(C)CCCc1cc(C(=O)Nc2ccc(-c3ccncc3)cc2)ccc1O` [GR 55562 dihydrobromide], the “Plate 2 (% conversion)” value under setting [1] amounted to 31.31%. For the same molecule, the “Plate 2 (% inhibition)” value under setting [2] came to 13.87%.
Take `OC[C@H]1O[C@@H](n2cnc3c(N[C@H]4CCC[C@@H]4O)ncnc32)[C@H](O)[C@@H]1O` [GR 79236X]: the “Plate 1 (% inhibition)” value under setting [3] was -7.17%. The “Plate 1 (% conversion)” value under setting [4] is recorded as 38.28%.
With `Cn1cc(C(=O)OCC2CCN(CCNS(C)(=O)=O)CC2)c2ccccc21` [GR 113808], the “Plate 1 (% inhibition)” value under setting [3] is on record as -5.71%. For the same molecule, under setting [4], the “Plate 1 (% conversion)” value was 37.79%.
`O=S(=O)(N[C@H](CO)C(C(F)(F)F)C(F)(F)F)c1ccc(Cl)s1` [GSI-953]: the “Plate 5 (% inhibition)” value was 5.55% and the “Plate 5 (% conversion)” value was determined as 34.43%.
With `O=C(O)CCNc1cc(N2CCc3ccccc3CC2)nc(-c2ccccn2)n1` [GSK-J1, reference compound], the half-inhibitory concentration (IC50) under setting [5] was determined as 12.9 ± 1.05 µM.
For `CCOC(=O)CCNc1cc(N2CCc3ccccc3CC2)nc(-c2ccccn2)n1` [GSK-J4, reference compound], the “IC50 [μM]” value under setting [5] was “inactive”.
As for `O=C1Nc2ccc(I)cc2/C1=C/c1cc(Br)c(O)c(Br)c1` [GW5074, reference compound], the “Inhibition at 20 µM [%]” value turned out to be 101.1%. The IC50 (pH 7.5) turned out to be 2.48 ± 0.14 µM.
In the case of `CC(C)(Sc1ccc(CCN(CCCCC2CCCCC2)C(=O)NC2CCCCC2)cc1)C(=O)O` [GW7647], the “Plate 2 (% conversion)” value under setting [1] was 29.96%. The inhibition at 20 µM under setting [2] came to 17.9%.
With `O=C(O)CCc1ccc(NCc2cccc(Oc3ccccc3)c2)cc1` [GW9508], the “Plate 2 (% conversion)” value under setting [1] is 35.17%. In addition, the inhibition at 20 µM under setting [2] was found to be 2.34%.
`CC1=NN=C(c2ccc(N)cc2)c2cc3c(cc2C1)OCO3.Cl` [GYKI 52466 hydrochloride]: the “Plate 2 (% conversion)” value is recorded as 38.91%. Also, the “Plate 2 (% inhibition)” value under setting [2] is listed as -8.84%.
For `Cl.NC1C=CC=C(C(=O)O)C1` (centres unmarked) [Gabaculine hydrochloride], the “Plate 1 (% conversion)” value is reported as 33.90% and the “Plate 1 (% inhibition)” value worked out at 5.88%.
Consider `CC[N+](CC)(CC)CCOc1cccc(OCC[N+](CC)(CC)CC)c1OCC[N+](CC)(CC)CC` [Gallamine triethiodide], for which the “Plate 2 (% conversion)” value under setting [1] was found to be 33.88%. In addition, under setting [2], the inhibition at 20 µM was 6.21%.
Turning to `CC(=O)[C@H]1CC[C@H]2[C@@H]3CC[C@H]4C[C@](C)(O)CC[C@]4(C)[C@H]3CC[C@]12C` [Ganaxolone], the “Plate 2 (% conversion)” value came out at 36.34% and the inhibition at 20 µM is -1.16%.
Consider `Nc1nc(O)c2ncn(COC(CO)CO)c2n1` [Ganciclovir], for which the “Plate 2 (% conversion)” value under setting [1] was found to be 35.57%. Also, the inhibition at 20 µM under setting [2] stood at 1.14%.
`Nc1ccn([C@@H]2O[C@H](CO)[C@@H](O)C2(F)F)c(=O)n1` [Gemcitabine hydrochloride]: under setting [3], the “Plate 1 (% inhibition)” value is 11.04%. For the same molecule, the “Plate 1 (% conversion)” value under setting [4] amounted to 32.17%.
Regarding `COC(=O)C1=CO[C@@H](O)[C@@H]2C(CO)=CC[C@H]12` [Genipin], the “Plate 2 (% conversion)” value under setting [1] was 36.58%. Besides, under setting [2], the inhibition at 20 µM was -1.85%.
The matching figures for `O=c1c(-c2ccc(O)cc2)coc2cc(O)cc(O)c12` [Genistein]: 19.78% and 48.3%.
Regarding `CCOc1ncc(S(=O)(=O)N2CCN(CC)CC2)cc1-c1nc2c(CC)n(CCOC)nc2c(=O)[nH]1.O=S(=O)(O)c1ccccc1` [Gisadenafil besylate salt], the “Plate 1 (% conversion)” value came to 43.96% and the “Plate 1 (% inhibition)” value is reported as -24.07%.
Turning to `CCOc1ncc(S(=O)(=O)N2CCN(CC)CC2)cc1-c1nc2c(CC)n(CCOC)nc2c(=O)[nH]1` [Gisadenafil], the “Plate 5 (% inhibition)” value is 10.85% and the “Plate 5 (% conversion)” value was found to be 32.62%.
On to `Cc1cnc(C(=O)NCCc2ccc(S(=O)(=O)NC(=O)NC3CCCCC3)cc2)cn1` [Glipizide], for which the inhibition at 20 µM under setting [2] is -8.88%.
In the case of `Cc1cc2c(C(C)C)c(O)c(O)c(C=O)c2c(O)c1-c1c(C)cc2c(C(C)C)c(O)c(O)c(C=O)c2c1O` [Gossypol], the “Plate 3 (% conversion)” value is given as 4.73%.
Take `CN1C2CCCC1CC(NC(=O)c1nn(C)c3ccccc13)C2` (centres unmarked) [Granisetron hydrochloride]: under setting [6], the “% conversion” value is listed as 34.30%.
On to `N=C(N)N/N=C/c1c(Cl)cccc1Cl` [Guanabenz acetate], for which the “Plate 2 (% conversion)” value under setting [1] came out at 34.67%. Moreover, under setting [2], the inhibition at 20 µM was determined as 3.85%.
As for `CNCCNS(=O)(=O)c1cccc2cnccc12.Cl.Cl` [H-8 dihydrochloride], the “Plate 3 (% conversion)” value under setting [7] is reported as 37.53%.
As to `CCCCC#Cc1nc(NC)c2ncn([C@@H]3O[C@H](CO)[C@@H](O)[C@H]3O)c2n1` [HEMADO], the “Plate 1 (% inhibition)” value under setting [3] is recorded as 20.82%. Under setting [4], the “Plate 1 (% conversion)” value is on record as 28.88%.
Regarding `Cc1nccc2c1[nH]c1ccccc12` [Harmane], the “Plate 2 (% conversion)” value was 35.31% and the inhibition at 20 µM amounted to 1.92%.
The matching figures for `C[N+](C)(C)CCCCCC[N+](C)(C)C` [Hexamethonium bromide]: 40.56% and -13.8%.
In the case of `C[N+](C)(C)CCCCCC[N+](C)(C)C.[Cl-].[Cl-]` [Hexamethonium dichloride], the “Plate 2 (% conversion)” value is 37.53%. Besides, under “20 µM”, the “Plate 2 (% inhibition)” value is on record as -4.72%.
Consider `O=c1cc(O)cc(/C=C/c2ccc(O)c(O)c2)o1` [Hispidin, reference compound], for which the “Plate 2 (% conversion)” value under setting [1] is reported as 3.05%. In addition, the inhibition at 20 µM under setting [2] is 98.3%.
The matching figures for `NCCc1c[nH]cn1` [Histamine dihydrochloride]: 39.28% and -9.92%.
In the case of `NNc1nncc2ccccc12` [Hydralazine hydrochloride], the “Plate 2 (% conversion)” value under setting [1] is recorded as 38.20%. Moreover, the inhibition at 20 µM under setting [2] is -6.7%.
The like results for `NS(=O)(=O)c1cc2c(cc1Cl)NCNS2(=O)=O` [Hydrochlorothiazide] were, in that order, 36.43% and -1.41%.
The matching figures for `C[C@]12CCC(=O)C=C1CC[C@@H]1[C@@H]2[C@@H](O)C[C@@]2(C)[C@H]1CC[C@]2(O)C(=O)CO` [Hydrocortisone]: 37.93% and -5.89%.
Regarding `Cl.NO` [Hydroxylamine hydrochloride], the “Plate 2 (% conversion)” value under setting [1] worked out at 39.20%. The “Plate 2 (% inhibition)” value under setting [2] was -9.70%.
The like results for `NC(=O)NO` [Hydroxyurea] were, in that order, 37.94% and -5.92%.
With `CNC(=O)[C@H]1O[C@@H](n2cnc3c(NCc4cccc(I)c4)ncnc32)[C@H](O)[C@@H]1O` [IB-MECA], the “Plate 3 (% conversion)” value under setting [7] came out at 35.04%.
Take `COc1cc(OC)c(C=C2C(O)=Nc3ccccc32)c(OC)c1` [IC 261]: the “% conversion” value was 29.42%.
On the same count and under the same terms, under `CCCn1c(=O)c(C)cn2nc(N)nc12` [ICI 63,137] stands 30.53%.
Regarding `Cl.Fc1ccc(CN(C2=NCCN2)c2c(Cl)cccc2Cl)cc1` [IMID-4F hydrochloride], under setting [1], the “Plate 2 (% conversion)” value amounted to 39.35%. In addition, the “Plate 2 (% inhibition)” value under setting [2] was -10.13%.
Turning to `COc1ccc(/C=C2\COc3ccc(C)cc3C2=O)cc1O` [IMS2186], under setting [6], the “% conversion” value came to 32.74%.
Take `Oc1ccc2ccccc2c1SSc1c(O)ccc2ccccc12` [IPA-3, reference compound]: the “Inhibition at 20 µM [%]” value (AspH activity, fixed compound concentration 20 μM, initial LOPAC screen, 0.5%v/v DMSO) stood at 100.0%. Besides, the “% conversion” value under setting [6] was 2.34%.
Turning to `O=C(Nc1nc2ccccc2n1CCN1CCOCC1)c1cccc([N+](=O)[O-])c1` [IRAK-1/4 Inhibitor I], the “% inhibition” value (LOPAC Plate 4, compound at 20 uM) was -1.55%. In addition, under setting [6], the “% conversion” value is given as 37.00%.
As for `CCCCCN(C)CCC(O)(P(=O)([O-])O)P(=O)(O)O.[Na+]` [Ibandronate sodium], the “% conversion” value under setting [6] is given as 30.05%.

(Values after article PMC7251097, “Aspartate/asparagine-β-hydroxylase: a high-throughput mass spectrometric assay for discovery of small molecule inhibitors” (Scientific Reports, 2020).)
